Experimental data: US12428370B2, “Haloallylamine dual amine oxidase inhibitors” (Syntara Limited, priority 2020, dated 2025)
Where a name gives a salt, the structure may show the parent alone.

Legend:
Rat Brain Tissue MAO-B = molecular target: T1, Rat Brain Tissue MAO-B (Rattus norvegicus, UniProt P19643); assay: Rat brain tissue MAO-B activity after oral administration; assay type: in vivo, Sprague Dawley rats; details: single oral dose 0.6 mg/kg, Sprague Dawley rat brain tissue, FIG. 3
T1 construct: Brain tissue was homogenized in ice-cold Tris buffer; from tissue; host or cells: brain of Sprague Dawley rats (mitochondrial extract)
T1 sequence (P19643 1-520): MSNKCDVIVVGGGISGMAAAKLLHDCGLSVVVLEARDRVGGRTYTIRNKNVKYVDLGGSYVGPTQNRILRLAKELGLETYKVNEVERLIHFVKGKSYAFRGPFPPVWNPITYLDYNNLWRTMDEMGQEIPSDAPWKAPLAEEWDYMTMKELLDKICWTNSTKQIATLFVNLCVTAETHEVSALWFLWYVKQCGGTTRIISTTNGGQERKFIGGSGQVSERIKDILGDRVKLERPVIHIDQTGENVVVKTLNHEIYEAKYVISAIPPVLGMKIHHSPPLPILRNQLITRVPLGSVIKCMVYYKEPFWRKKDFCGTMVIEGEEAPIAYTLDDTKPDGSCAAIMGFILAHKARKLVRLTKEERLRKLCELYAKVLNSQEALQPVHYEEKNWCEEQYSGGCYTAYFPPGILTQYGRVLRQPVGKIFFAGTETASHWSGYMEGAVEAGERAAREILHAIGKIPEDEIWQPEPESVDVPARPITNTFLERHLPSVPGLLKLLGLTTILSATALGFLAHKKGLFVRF
Description: Sprague Dawley rats were orally administered the compound under study and sacrificed at various time points and gonadal fat and brain tissue collected.
Brain tissue was homogenized in ice-cold Tris buffer (10 mM Tris·HCl, 0.5 mM EDTA, sucrose 250 mM, pH 7.4). Homogenate was then centrifuged at 4,000 rpm for 3 minutes at 4° C. The resultant supernatant was transferred and centrifuged again at 4,000 rpm for 3 minutes at 4° C. Process repeated one last time, this time at 10,000 rpm for 8 minutes. Supernatant discarded and the resultant pellet containing the mitochondrial extract re-suspended in 0.1 M sodium phosphate buffer solution (1:3 ratio). MAO-B activity was determined by using a specific MAO-A inhibitor (e.g. clorgyline) and a SSAO/VAP-1 inhibitor (e.g. semicarbazide) to establish the high signal. Low signal was established as for the adipose tissue assay.
Activity of the treated samples was analyzed using the fluorometric method described in EXAMPLE 9 for SSAO/VAP-1 activity and EXAMPLE 10 for MAO-B.

[1] = system: BALB/c mice, carrageenan air pouch; assay: Carrageenan air pouch model; assay type: in vivo; details: single oral application 1 h before carrageenan, read 4 h after, vs carrageenan-treated mice, FIG. 4
Description: On day 0, BALB/c mice were shaved at the nape of the neck, anesthetized and 6 mL air sterile (0.2 μm, Sartorius, Cat. 16532) was injected subcutaneously using a 23G×1½ inch needle fixed to a 6 mL syringe. The injection site was sealed with flexible collodion (Macron, Cat. 4580-02). On day 3 a further 3 mL of sterile air was injected into the neck.
3% λ-carrageenan was prepared by dissolving 1.8 g λ-carrageenan (FLUKA, Cat. 22049, lot 1408463) in 60 mL hot de-ionized water. Once dissolved, the solution was cooled to room temperature and the volume made up to 60 mL with de-ionized water.
On day six, PXS-5131 in PBS (vehicle) or PBS only were administered by oral gavage to the mice. One hour after administration, mice were injected with 1 mL 3% λ-carrageenan, using a 23G×2 inch needle fitted to a 1 mL syringe, directly into the air pouch. Sham animals were administered 1 mL de-ionized water instead of λ-carrageenan solution.
Four hours after carrageenan/de-ionized water injection, the mice were anesthetized and 3 mL 10 U/mL heparinized saline was injected into the air pouch. The air pouch was gently massaged, the contents immediately removed using an 18G×1 inch needle fitted to a 5 mL syringe, and the exudate volume recorded. An aliquot of the exudate taken for total white blood cell counting; a second aliquot of the exudate was taken for differential white blood cell counts.

phospholipidosis = assay: Phospholipidosis cell-based fluorescence assay; details: concentrations up to 100 μM
Description: Assessment of the Potential of Compound 1 to Induce Phospholipidosis in a Cell-Based Fluorescence Assay.
Compound 1 was tested in vitro for the potential to induce phospholipidosis according to the method outlined by Fujimura et. al. (Experimental and Toxicologic Pathology, 2007, 58, 375-382) at concentrations up to 100 μM.

[2] = system: cytochrome P450 (1A2, 2B6, 2C8, 2C9, 2C19, 2D6, 3A4); 44 enzymes, receptors, ion channels and transporters; 13 common transporters; 7 cardiac ion channel …; assay: Off-target profile (cytochrome P450, Safety Screen panel, Transporter panel, Cardiac Ion Channel panel); details: all assays: CYP at 30 μM, panels at 10 μM, cardiac ion channels up to 300 μM
Description: Assessment of the off-target profile of Compound 1 using standardized commercially available methods (available through contract research organizations such as Eurofins Panlabs Inc, (https://www.eurofinsdiscoveryservices.com/services/in-vitro-assays/) or Evotec SE, (https://www.evotec.com/en/execute/integrated-pre-clinical-development/adme)).
The potential for off-target promiscuity in vivo was evaluated in vitro using the following assays:
Inhibition of cytochrome P450 activity (30 μM single concentration; 1A2, 2B6, 2C8, 2C9, 2C19, 2D6, 3A4)
Eurofins Discovery Safety Screen panel of 44 enzymes, receptors, ion channels and transporters (percentage inhibition at 10 μMconcentration).
Eurofins Transporter Protein Screen panel of 13 common transporters (percentage inhibition at 10 μM concentration).
Aptuit Cardiac Ion Channel panel of 7 targets (automated patch clamp assay; concentration 0 up to 300 μM).

| SMILES | duration of inhibition of MAO-B enzyme activity (Rat Brain Tissue MAO-B) | exudate volume in the air pouch [1] | neutrophil count in the air pouch [1] | effect on cell viability (phospholipidosis) | effect on the cellular phenotype (phospholipidosis) (phospholipidosis) | off-target profile [2] |
| --- | --- | --- | --- | --- | --- | --- |
| NC/C(=C\F)C1Cc2ccccc2O1 (single isomer, unassigned; (-)) [PXS-5131, (−)-(E)-2-(2,3-Dihydrobenzofuran-2-Yl)-3-Fluoroprop-2-En-1-Amine Hydrochloride] | greater than 24 hours | decrease | decrease |  |  |  |
| N#Cc1ccc(OC/C(=C/F)CN)cc1 [Compound 1, (E)-4-((2-(aminomethyl)-3-fluoroallyl)oxy) benzonitrile] |  |  |  | no effect | no effect | favorable off-target profile |
